Data as given in PMC10304880, “Novel Tryptanthrin Derivatives with Selectivity as c–Jun N–Terminal Kinase (JNK) 3 Inhibitors” (Molecules, 2023).

Legend:
[1] = CellTiter-Glo cytotoxicity in THP-1Blue cells; type: cell-based; conditions: human, 24 h incubation
Description: (§1) Prior to evaluation of the compounds in cell-based assays, we measured their cytotoxicity in human monocytic THP-1Blue and MonoMac-6 cells during a 24 h incubation. […] Thus, these compounds were all excluded from subsequent testing in these cell lines.
(§2) Cytotoxicity was analyzed with a CellTiter-Glo Luminescent Cell Viability Assay Kit from Promega (Madison, WI, USA), according to the manufacturer’s protocol. Cells were treated with the compound under investigation and cultivated for 24 h. After treatment, the cells were allowed to equilibrate to room temperature for 30 min, substrate was added, and the luminescence measured using a Fluoroscan Ascent FL (Thermo Fisher Scientific, Waltham, MA, USA). The cell IC50 values were calculated by plotting the percentage inhibition against the logarithm of inhibitor concentration (at least five points).

JNK2 = target: T1, JNK2 (Homo sapiens, UniProt P45984); assay: KINOMEscan JNK2 binding (Kd); conditions: 12-point series, max 33 μM, duplicate
T1 construct: purchased Eurofins Pharma Discovery (KINOMEscan service)
Description: (§3) All compounds were evaluated for their ability to bind to JNK1-3 using the KINOMEscan platform.
(§4) Compounds were submitted for dissociation constant (Kd) determination using KINOMEscan (Eurofins Pharma Discovery, San Diego, CA, USA), as described previously. […] Primary screening at fixed concentrations of compounds was performed in duplicate. To determine dissociation constant Kd, a 12-point half-log dilution series (a maximum concentration of 33 μM) was used.

[2] = CellTiter-Glo cytotoxicity in MonoMac-6 cells; type: cell-based; conditions: human, 24 h incubation
Description: as §1, §2

JNK3 = target: T2, JNK3 (Homo sapiens, UniProt P53779); assay: KINOMEscan JNK3 binding (Kd); conditions: for Kd: KINOMEscan, 12-point series, max 33 μM, duplicate; for Selectivity Index JNK1/JNK3 / Selectivity Index JNK2/JNK3: ratio of Kd values
T2 construct: purchased Eurofins Pharma Discovery (KINOMEscan service)
Description: as §3, §4

[3] = system: NF-κB/AP-1 transcriptional activity in THP-1Blue cells; assay: LPS-induced NF-κB/AP-1 alkaline phosphatase reporter assay in THP-1Blue cells; type: cell-based; conditions: Homo sapiens, 30 min pretreatment, 250 ng/mL LPS, 24 h; read-out: AP Production in THP–1Blue IC50
Description: Activation of AP-1/NF-κB was measured using an alkaline phosphatase reporter gene assay in THP1-Blue cells. Human monocytic THP-1Blue cells were stably transfected with a secreted embryonic alkaline phosphatase gene that was under the control of a promoter inducible by AP-1/NF-κB.
Figure 2 Effect of compounds 4d and 4e on NF-κB/AP-1 activity and IL-6 production. Panel (A) THP-1Blue cells were pretreated with the indicated compounds or DMSO for 30 min, followed by addition of 250 ng/mL LPS or buffer for 24 h. […] Panel (B) MonoMac-6 cells were pretreated with the indicated compounds or DMSO for 30 min, followed by addition of 250 ng/mL LPS or buffer for 24 h. Production of IL-6 in the supernatants was evaluated with ELISA. The data in each panel are presented as the mean ± S.D. of triplicate samples from one experiment that is representative of three independent experiments.

[4] = system: IL-6 production in MonoMac-6 cells; assay: LPS-induced IL-6 production in MonoMac-6 cells (ELISA); type: cell-based, human; conditions: 250 ng/mL LPS, 24 h
Description: All cells were cultured at 37 °C in a humidified atmosphere containing 5% CO2. Human THP-1Blue monocytic cells obtained from InvivoGen (San Diego, CA, USA) were cultured in RPMI 1640 medium (Mediatech Inc., Herndon, VA, USA) supplemented with 10% (v/v) fetal bovine serum (FBS), 4.5 g/L glucose, 100 μg/mL streptomycin, 100 U/mL penicillin, 100 μg/mL phleomycin (Zeocin), and 10 μg/mL blasticidin S. Human monocyte-macrophage MonoMac-6 cells (Deutsche Sammlung von Mikroorganismen und Zellkulturen GmbH, Braunschweig, Germany) were grown in RPMI 1640 medium supplemented with 10% (v/v) FBS, 10 μg/mL bovine insulin, 100 μg/mL streptomycin, and 100 U/mL penicillin.
Panel (A) THP-1Blue cells were pretreated with the indicated compounds or DMSO for 30 min, followed by addition of 250 ng/mL LPS or buffer for 24 h. […] Panel (B) MonoMac-6 cells were pretreated with the indicated compounds or DMSO for 30 min, followed by addition of 250 ng/mL LPS or buffer for 24 h. Production of IL-6 in the supernatants was evaluated with ELISA. The data in each panel are presented as the mean ± S.D. of triplicate samples from one experiment that is representative of three independent experiments.

JNK1 = target: T3, JNK1 (Homo sapiens, UniProt P45983); assay: KINOMEscan JNK1 binding (Kd); conditions: 12-point series, max 33 μM, duplicate
T3 construct: purchased Eurofins Pharma Discovery (KINOMEscan service)
Description: as §3, §4

[5] = system: c-Jun phosphorylation in MonoMac-6 cells; assay: LPS-induced c-Jun (Ser63) phosphorylation in MonoMac-6 cells (sandwich ELISA); type: cell-based, human; conditions: 30 min pretreatment, LPS 500 ng/mL
Description: After 30 min pretreatment with the compounds, the cells were stimulated with LPS (500 ng/mL), and the level of phospho-c-Jun (S63) was determined by a sandwich ELISA.
MonoMac-6 cell lysates were prepared using Cell Lysis Buffer (Cell Signaling Technology, Danvers, MA, USA). The phospho-c-Jun content was measured with ELISA using the PathScan Phospho-c-Jun (Ser63) Sandwich ELISA Kit II (Cell Signaling Technology, USA), and the data are shown as the ratio of phospho-c-Jun vs. total c-Jun, which was measured using the FastScanTM Total c-Jun ELISA kit (Cell Signaling Technology).
Figure 3 Effect of the compounds 4d, 4e, 4h, and IQ-1S on LPS-induced c-Jun phosphorylation. Human MonoMac-6 monocytic cells were pretreated with the indicated concentrations of compounds or 0.5% DMSO for 30 min, followed by treatment with LPS (500 ng/mL) or control buffer for another 30 min. The cells were lysed, and the lysates were analyzed with ELISA for phospho-c-Jun (Ser63) and total c-Jun. The data are represented as the ratio of phospho-c-Jun to total c-Jun. The data are presented as the mean ± S.D. of triplicate samples from one experiment that is representative of three independent experiments. * Significant differences (p < 0.05) with LPS control.

[6] = Homo sapiens, MONO-MAC-6, 30 min pretreatment

T2 sequence (P53779 whole entry): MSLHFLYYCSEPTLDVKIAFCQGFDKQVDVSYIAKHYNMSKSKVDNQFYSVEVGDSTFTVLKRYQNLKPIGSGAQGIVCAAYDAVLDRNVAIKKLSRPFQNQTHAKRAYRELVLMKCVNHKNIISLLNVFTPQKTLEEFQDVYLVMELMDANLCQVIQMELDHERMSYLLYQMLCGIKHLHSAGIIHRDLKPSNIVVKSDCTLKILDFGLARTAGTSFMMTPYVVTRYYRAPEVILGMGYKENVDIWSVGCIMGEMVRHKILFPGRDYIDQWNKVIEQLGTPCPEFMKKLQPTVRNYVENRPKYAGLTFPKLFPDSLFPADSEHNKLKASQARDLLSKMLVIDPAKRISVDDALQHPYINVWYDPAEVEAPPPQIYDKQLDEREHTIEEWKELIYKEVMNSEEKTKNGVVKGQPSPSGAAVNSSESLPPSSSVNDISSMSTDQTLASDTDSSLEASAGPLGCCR
T3 sequence (P45983 whole entry): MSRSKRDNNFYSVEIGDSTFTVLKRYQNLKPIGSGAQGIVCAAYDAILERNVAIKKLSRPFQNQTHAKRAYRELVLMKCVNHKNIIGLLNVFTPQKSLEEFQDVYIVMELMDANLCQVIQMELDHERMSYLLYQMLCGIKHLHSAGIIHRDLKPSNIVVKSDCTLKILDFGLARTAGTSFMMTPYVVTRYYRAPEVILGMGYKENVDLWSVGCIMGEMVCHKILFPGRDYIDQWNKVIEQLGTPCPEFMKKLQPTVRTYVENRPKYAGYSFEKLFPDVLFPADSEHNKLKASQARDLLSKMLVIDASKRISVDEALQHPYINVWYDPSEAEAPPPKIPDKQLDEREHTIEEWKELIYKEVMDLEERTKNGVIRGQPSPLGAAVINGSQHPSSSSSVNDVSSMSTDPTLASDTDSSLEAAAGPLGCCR
T1 sequence (P45984 whole entry): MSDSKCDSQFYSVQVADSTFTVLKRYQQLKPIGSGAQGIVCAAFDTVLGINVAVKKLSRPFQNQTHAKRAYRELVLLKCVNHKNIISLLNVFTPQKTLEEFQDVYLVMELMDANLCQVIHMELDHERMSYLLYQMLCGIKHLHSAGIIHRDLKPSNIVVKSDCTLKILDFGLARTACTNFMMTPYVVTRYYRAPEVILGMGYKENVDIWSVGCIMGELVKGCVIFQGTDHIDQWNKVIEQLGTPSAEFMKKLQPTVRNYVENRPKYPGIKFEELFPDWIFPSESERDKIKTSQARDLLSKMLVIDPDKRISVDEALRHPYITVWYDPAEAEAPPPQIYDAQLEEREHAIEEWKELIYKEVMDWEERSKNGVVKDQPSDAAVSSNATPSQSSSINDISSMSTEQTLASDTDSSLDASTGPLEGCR

SMILES	IC50 at 24 h [1]	Kd (JNK2)	IC50 at 24 h [2]	Kd (JNK3)	Selectivity Index JNK1/JNK3 (JNK3)	Selectivity Index JNK2/JNK3 (JNK3)	IC50 [3]	IC50 ([4]; 30 min pretreatment)	IC50 [4, 6]	Kd (JNK1)	melting point	LPS-induced c-Jun phosphorylation (phospho-c-Jun S63 / total c-Jun) [5]
O=c1c2ccc(F)cc2nc2n1-c1ccccc1C2=NO [Compound 4l, 3-Fluoroindolo[2,1-b]quinazolin-6,12-dione Oxime]	> 50 µM	0.72 ± 0.22 µM	> 50 µM	0.43 ± 0.04 µM	2.6	1.7	5 ± 0.1 µM	0.61 ± 0.04 µM	< 1 µM	1.1 ± 0.1 µM	> 225 °C (dec.)	
O=c1c2ccc([N+](=O)[O-])cc2nc2n1-c1ccccc1C2=NO [Compound 4m, 3-Nitroindolo[2,1-b]quinazolin-6,12-dione Oxime]	> 50 µM	> 30 µM	> 50 µM	6.1 ± 0.4 µM	>5.6	>5.6	8.3 ± 0.2 µM		1.9 ± 0.3 µM	> 30 µM	> 225 °C (dec.)	
Cc1ccc2c(c1)C(=NO)c1nc3ccc(C)cc3c(=O)n1-2 [Compound 4o, 2,8-Dimethylindolo[2,1-b]quinazolin-6,12-dione Oxime]	> 50 µM	6.9 ± 0.2 µM	> 50 µM	0.87 ± 0.16 µM	4.3	7.9	8.1 ± 0.1 µM	0.8 ± 0.1 µM	< 1 µM	3.7 ± 0.5 µM	> 300 °C (dec.)	
Cc1cccc2c1C(=NO)c1nc3cccc(C)c3c(=O)n1-2 [Compound 4p, 1,7-Dimethylindolo[2,1-b]quinazolin-6,12-dione Oxime]	> 50 µM	> 30 µM	> 50 µM	> 30 µM			> 50 µM		> 50 µM	> 30 µM	190 to 191 °C	
COc1ccc2c(c1)C(=NO)c1nc3ccc(OC)cc3c(=O)n1-2 [Compound 4q, 2,8-Dimethoxylindolo[2,1-b]quinazolin-6,12-dione Oxime]	> 50 µM	> 30 µM	> 50 µM	> 30 µM			4.6 ± 0.3 µM		1.3 ± 0.4 µM	> 30 µM	262 to 263 °C	
O=c1c2c(Br)cccc2nc2n1-c1cccc(Br)c1C2=NO [Compound 4u, 1,7-Dibromoindolo[2,1-b]quinazolin-6,12-dione Oxime]	> 50 µM	> 30 µM	> 50 µM	> 30 µM			> 50 µM		> 50 µM	> 30 µM	> 300 °C (dec.)	
CCOC(=O)CON=C1c2ccccc2-n2c1nc1ccccc1c2=O [Compound 5a, Ethyl 2-(((12-Oxoindolo[2,1-b]quinazolin-6(12H)-ylidene)amino)oxy)acetate]	> 50 µM	> 30 µM	> 50 µM	> 30 µM			> 50 µM		> 50 µM	> 30 µM	218 °C	
CCOC(=O)C(ON=C1c2ccccc2-n2c1nc1ccccc1c2=O)C(=O)OCC [Compound 5b, Diethyl 2-(((12-Oxoindolo[2,1-b]quinazolin-6(12H)-ylidene)amino)oxy)malonate]	> 50 µM	> 30 µM	> 50 µM	> 30 µM			> 50 µM		> 50 µM	16.5 ± 0.7 µM	211 °C	
COC(=O)ON=C1c2ccccc2-n2c1nc1ccccc1c2=O [Compound 5c, 6-(((Methoxycarbonyl)oxy)imino)indolo[2,1-b]quinazolin-12(6H)-one]	> 50 µM	2.8 ± 0.5 µM	> 50 µM	0.7 ± 0.12 µM	2.4	4.0	8.1 ± 2.2 µM		12.4 ± 1.3 µM	1.7 ± 0.4 µM	197 °C	
C#CCOC(=O)ON=C1c2ccccc2-n2c1nc1ccccc1c2=O [Compound 5d, 6-((((Prop-2-yn-1-yloxy)carbonyl)oxy)imino)indolo[2,1-b]quinazolin-12(6H)-one]	> 50 µM	1.6 ± 0.1 µM	> 50 µM	0.32 ± 0.06 µM	3.0	5.0	4.4 ± 1.6 µM		7 ± 0.9 µM	0.95 ± 0.03 µM	210 °C	
[Na+].[O-]/N=C1/c2ccccc2-c2nc3ccccc3nc21 [IQ-1S, reference compound]												dose-dependently inhibited
